# Bridge positions count the residues as written; N and C are the ends. Square brackets hold non-standard residues; d marks the D form. Peptide text beside a SMILES is read from it. * marks the point of attachment. Phe(4-COOH) = N[C@@H](Cc1ccc(C(=O)O)cc1)C(=O)O; Bip = N[C@@H](Cc1ccc(-c2ccccc2)cc1)C(=O)O; 4Pal = N[C@@H](Cc1ccncc1)C(=O)O; Cha = N[C@@H](CC1CCCCC1)C(=O)O; Cit = NC(=O)NCCC[C@H](N)C(=O)O; Carboxymethyl = O=C(O)C*; Orn = NCCC[C@H](N)C(=O)O; Aun = NCCCCCCCCCCC(=O)O; Dab = NCC[C@H](N)C(=O)O; Dap = NC[C@H](N)C(=O)O; AEEA = NCCOCCOCC(=O)O
# Target: T1, PD-1/PD-L1 interaction (PE-labeled human PD-L1-Ig binding to Jurkat cell line over-expressing human PD-1) (Homo sapiens, UniProt Q15116)
# T1 construct: expressed in transfected cells; host or cells: Jurkat
# T1 sequence (Q15116 25-288): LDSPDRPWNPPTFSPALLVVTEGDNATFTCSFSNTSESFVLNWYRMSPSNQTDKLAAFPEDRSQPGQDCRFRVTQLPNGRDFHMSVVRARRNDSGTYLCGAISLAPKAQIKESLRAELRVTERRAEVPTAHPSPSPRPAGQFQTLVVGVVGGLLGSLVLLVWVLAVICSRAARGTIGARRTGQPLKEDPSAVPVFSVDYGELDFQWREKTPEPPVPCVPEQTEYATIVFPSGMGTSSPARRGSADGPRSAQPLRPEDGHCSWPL
# Experiment: Jurkat-PD-1 Cell Binding High-Content Screening Assay (CBA)
# Assay type: cell-based
# Conditions: Jurkat cell line over-expressing human PD-1; PE-labeled PD-L1-Ig 20 nM final; read-out: Jurkat hPD1-PDL1 IC50
# How it was run: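 Human PD-L1-Ig carrying a covalent PE label on its Ig tag serves as the probe, applied at 20 nM final to compound-treated (2 h, 37° C) Jurkat-hPD-1 cells in medium with 10% fetal calf serum. After one hour, fixation and nuclear staining precede high-content image analysis.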
row,SMILES,IC50 [nM]
1,CC(C)C[C@H]1NC(=O)[C@H](CCCN)NC(=O)[C@H](C(C)C)NC(=O)[C@H](Cc2ccc(-c3ccccc3)cc2)NC(=O)[C@H](C(C)C)NC(=O)[C@H](Cc2c[nH]c3ccccc23)NC(=O)[C@H](CC(=O)O)NC(=O)[C@H](Cc2ccc(C(=O)O)cc2)NC(=O)[C@H](CCCNC(=N)N)NC(=O)CSC[C@@H](C(=O)NCC(=O)NCCOCCOCC(=O)N[C@@H](CCCN)C(=O)NCCCCCCCCCCC(=O)O)NC(=O)[C@H](CO)NC(=O)[C@H](C(C)C)NC(=O)[C@H](CC2CCCCC2)NC(=O)[C@H](CCN)NC1=O [Compound 3231] ({CH2CO}-R[Phe(4-COOH)]DWV[Bip]V[Orn][dL][Dab][Cha]VSCG[AEEA][Orn][Aun]-OH; thioether N-14),7.7
2,CC(C)C[C@H]1NC(=O)[C@H](CCCN)NC(=O)[C@H](C(C)C)NC(=O)[C@H](Cc2ccc(-c3ccccc3)cc2)NC(=O)[C@H](C(C)C)NC(=O)[C@H](Cc2c[nH]c3ccccc23)NC(=O)[C@H](CC(=O)O)NC(=O)[C@H](Cc2ccncc2)NC(=O)[C@H](Cc2ccc(OCC(=O)O)cc2)NC(=O)CSC[C@@H](C(=O)NCC(=O)NCCOCCOCC(=O)N[C@@H](CCCN)C(=O)NCCCCCCCCCCC(=O)O)NC(=O)[C@H](CN)NC(=O)[C@H](C(C)C)NC(=O)[C@H](CC2CCCCC2)NC(=O)[C@H](CCN)NC1=O [Compound 3232] ({CH2CO}-Y(Carboxymethyl)[4Pal]DWV[Bip]V[Orn][dL][Dab][Cha]V[Dap]CG[AEEA][Orn][Aun]-OH; thioether N-14),10.1
3,CC(C)C[C@H]1NC(=O)[C@H](CCCN)NC(=O)[C@H](C(C)C)NC(=O)[C@H](Cc2ccc(-c3ccccc3)cc2)NC(=O)[C@H](C(C)C)NC(=O)[C@H](Cc2c[nH]c3ccccc23)NC(=O)[C@H](CC(=O)O)NC(=O)[C@H](Cc2ccc(OCC(=O)O)cc2)NC(=O)[C@H](Cc2ccncc2)NC(=O)CSC[C@@H](C(=O)NCC(=O)NCCOCCOCC(=O)N[C@@H](CCCN)C(=O)NCCCCCCCCCCC(=O)O)NC(=O)[C@H](CN)NC(=O)[C@H](C(C)C)NC(=O)[C@H](CC2CCCCC2)NC(=O)[C@H](CCN)NC1=O [Compound 3233] ({CH2CO}-[4Pal]Y(Carboxymethyl)DWV[Bip]V[Orn][dL][Dab][Cha]V[Dap]CG[AEEA][Orn][Aun]-OH; thioether N-14),5.5
4,CC(C)C[C@H]1NC(=O)[C@H](CCCN)NC(=O)[C@H](C(C)C)NC(=O)[C@H](Cc2ccc(-c3ccccc3)cc2)NC(=O)[C@H](C(C)C)NC(=O)[C@H](Cc2c[nH]c3ccccc23)NC(=O)[C@H](CC(=O)O)NC(=O)[C@H](Cc2ccc(C(=O)O)cc2)NC(=O)[C@H](Cc2ccncc2)NC(=O)CSC[C@@H](C(=O)NCC(=O)NCCOCCOCC(=O)N[C@@H](CCCN)C(=O)NCCCCCCCCCCC(=O)O)NC(=O)[C@H](CN)NC(=O)[C@H](C(C)C)NC(=O)[C@H](CC2CCCCC2)NC(=O)[C@H](CCN)NC1=O [Compound 3234] ({CH2CO}-[4Pal][Phe(4-COOH)]DWV[Bip]V[Orn][dL][Dab][Cha]V[Dap]CG[AEEA][Orn][Aun]-OH; thioether N-14),7.3
5,CC(C)C[C@H]1NC(=O)[C@H](CCCN)NC(=O)[C@H](C(C)C)NC(=O)[C@H](Cc2ccc(-c3ccccc3)cc2)NC(=O)[C@H](C(C)C)NC(=O)[C@H](Cc2c[nH]c3ccccc23)NC(=O)[C@H](CC(=O)O)NC(=O)[C@H](Cc2ccc(OCC(=O)O)cc2)NC(=O)[C@H](Cc2ccncc2)NC(=O)CSC[C@@H](C(=O)NCC(=O)NCCOCCOCC(=O)N[C@@H](CCCN)C(=O)NCCCCCCCCCCC(=O)O)NC(=O)[C@H](CCCNC(N)=O)NC(=O)[C@H](C(C)C)NC(=O)[C@H](CC2CCCCC2)NC(=O)[C@H](CCN)NC1=O [Compound 3235] ({CH2CO}-[4Pal]Y(Carboxymethyl)DWV[Bip]V[Orn][dL][Dab][Cha]V[Cit]CG[AEEA][Orn][Aun]-OH; thioether N-14),5.7

# Reference: patent US20260022142A1, “MACROCYCLIC IMMUNOMODULATORS” (Bristol-Myers Squibb Company, priority 2022, published 2026)
